# Data from ChEMBL document CHEMBL5321200, “Discovery of the GSH responsive "Y-PROTACs" targeting ALK and CDK4/6 as a potential treatment for cancer” (Eur J Med Chem, 2023).
# Active and inactive are the calls of the source. The calls are words filed in the database; no cut-off is given here.
# Key:
# [1] = target: Protein cereblon/ALK tyrosine kinase receptor (Homo sapiens) (UniProt Q9UM73+Q96SW2); experiment: PROTAC activity at CRBN/ALK in human NCI-H2228 cells assessed as reduction in ALK protein level by Western blot analysis; format: cell-based
# Protein cereblon/ALK tyrosine kinase receptor (Homo sapiens), sequence (Q96SW2 whole entry partner, the tested form may be a part): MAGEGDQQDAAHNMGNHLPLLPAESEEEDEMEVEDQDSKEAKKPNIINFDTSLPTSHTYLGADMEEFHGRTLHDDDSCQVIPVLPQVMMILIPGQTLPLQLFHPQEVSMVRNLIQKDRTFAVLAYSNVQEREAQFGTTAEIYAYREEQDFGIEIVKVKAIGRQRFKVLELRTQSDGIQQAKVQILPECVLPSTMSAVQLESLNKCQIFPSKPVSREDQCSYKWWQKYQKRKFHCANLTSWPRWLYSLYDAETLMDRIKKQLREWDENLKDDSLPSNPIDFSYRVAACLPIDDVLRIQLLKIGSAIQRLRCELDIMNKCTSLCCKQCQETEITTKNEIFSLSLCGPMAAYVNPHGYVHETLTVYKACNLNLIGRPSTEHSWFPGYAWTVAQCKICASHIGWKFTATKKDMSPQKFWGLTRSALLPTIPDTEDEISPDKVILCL
# Protein cereblon/ALK tyrosine kinase receptor (Homo sapiens), sequence (Q9UM73 19-1620 limits assumed): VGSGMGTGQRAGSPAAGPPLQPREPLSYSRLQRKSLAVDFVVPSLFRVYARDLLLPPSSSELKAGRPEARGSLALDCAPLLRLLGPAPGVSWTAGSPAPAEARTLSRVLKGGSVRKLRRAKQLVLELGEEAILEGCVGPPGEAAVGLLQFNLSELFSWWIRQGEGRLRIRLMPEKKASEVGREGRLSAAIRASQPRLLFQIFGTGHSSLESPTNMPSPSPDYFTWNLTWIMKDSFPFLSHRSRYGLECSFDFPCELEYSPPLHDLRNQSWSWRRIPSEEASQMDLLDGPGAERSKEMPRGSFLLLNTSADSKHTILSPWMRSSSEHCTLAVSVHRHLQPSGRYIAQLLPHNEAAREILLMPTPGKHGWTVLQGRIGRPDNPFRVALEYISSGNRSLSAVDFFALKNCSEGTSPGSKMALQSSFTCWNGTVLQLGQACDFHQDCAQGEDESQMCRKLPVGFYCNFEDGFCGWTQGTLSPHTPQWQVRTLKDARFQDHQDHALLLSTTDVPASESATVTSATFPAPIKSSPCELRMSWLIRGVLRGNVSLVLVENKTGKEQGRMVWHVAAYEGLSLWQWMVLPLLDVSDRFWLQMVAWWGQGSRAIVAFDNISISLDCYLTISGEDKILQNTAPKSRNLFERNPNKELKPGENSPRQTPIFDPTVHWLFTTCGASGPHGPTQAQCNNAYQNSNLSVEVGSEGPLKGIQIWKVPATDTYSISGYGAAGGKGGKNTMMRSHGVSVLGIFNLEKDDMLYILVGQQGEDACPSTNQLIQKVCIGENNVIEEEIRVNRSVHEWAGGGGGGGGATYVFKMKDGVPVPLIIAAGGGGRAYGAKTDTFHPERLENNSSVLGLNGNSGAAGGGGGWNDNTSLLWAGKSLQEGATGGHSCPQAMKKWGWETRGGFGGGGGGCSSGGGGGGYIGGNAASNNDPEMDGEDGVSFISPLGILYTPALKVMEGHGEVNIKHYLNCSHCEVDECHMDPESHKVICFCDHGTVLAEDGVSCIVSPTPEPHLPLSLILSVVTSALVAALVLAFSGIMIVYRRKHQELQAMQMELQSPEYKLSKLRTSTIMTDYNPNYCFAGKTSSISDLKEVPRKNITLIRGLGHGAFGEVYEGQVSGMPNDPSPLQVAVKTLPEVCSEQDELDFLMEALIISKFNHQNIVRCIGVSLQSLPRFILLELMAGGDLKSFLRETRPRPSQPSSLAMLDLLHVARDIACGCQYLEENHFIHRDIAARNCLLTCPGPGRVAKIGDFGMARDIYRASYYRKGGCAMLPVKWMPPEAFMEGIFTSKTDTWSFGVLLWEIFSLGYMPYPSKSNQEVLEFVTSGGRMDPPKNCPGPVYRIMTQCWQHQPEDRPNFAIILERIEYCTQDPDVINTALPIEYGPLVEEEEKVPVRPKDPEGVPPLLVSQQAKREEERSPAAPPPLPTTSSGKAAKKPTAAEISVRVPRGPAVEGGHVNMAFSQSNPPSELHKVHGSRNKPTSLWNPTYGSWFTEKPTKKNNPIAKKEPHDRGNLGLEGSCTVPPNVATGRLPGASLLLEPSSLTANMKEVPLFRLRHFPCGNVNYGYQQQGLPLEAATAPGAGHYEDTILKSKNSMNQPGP
# [2] = target: T1, Protein cereblon/ALK tyrosine kinase receptor/Echinoderm microtubule-associated protein-like 4 (Homo sapiens) (UniProt Q9UM73+Q9HC35+Q96SW2); experiment: PROTAC activity at CRBN/EML4-ALK in human NCI-H3122 cells assessed as degradation of EML4-ALK fusion protein at 5 uM pretreated with MG132 for 4 hrs followed compound addition and measured after 24 hrs by Western blot analysis; format: cell-based
# T1 sequence (Q96SW2 whole entry partner, the tested form may be a part): as the sequence (Q96SW2 whole entry partner, the tested form may be a part) above
# T1 sequence (Q9HC35 whole entry partner, the tested form may be a part): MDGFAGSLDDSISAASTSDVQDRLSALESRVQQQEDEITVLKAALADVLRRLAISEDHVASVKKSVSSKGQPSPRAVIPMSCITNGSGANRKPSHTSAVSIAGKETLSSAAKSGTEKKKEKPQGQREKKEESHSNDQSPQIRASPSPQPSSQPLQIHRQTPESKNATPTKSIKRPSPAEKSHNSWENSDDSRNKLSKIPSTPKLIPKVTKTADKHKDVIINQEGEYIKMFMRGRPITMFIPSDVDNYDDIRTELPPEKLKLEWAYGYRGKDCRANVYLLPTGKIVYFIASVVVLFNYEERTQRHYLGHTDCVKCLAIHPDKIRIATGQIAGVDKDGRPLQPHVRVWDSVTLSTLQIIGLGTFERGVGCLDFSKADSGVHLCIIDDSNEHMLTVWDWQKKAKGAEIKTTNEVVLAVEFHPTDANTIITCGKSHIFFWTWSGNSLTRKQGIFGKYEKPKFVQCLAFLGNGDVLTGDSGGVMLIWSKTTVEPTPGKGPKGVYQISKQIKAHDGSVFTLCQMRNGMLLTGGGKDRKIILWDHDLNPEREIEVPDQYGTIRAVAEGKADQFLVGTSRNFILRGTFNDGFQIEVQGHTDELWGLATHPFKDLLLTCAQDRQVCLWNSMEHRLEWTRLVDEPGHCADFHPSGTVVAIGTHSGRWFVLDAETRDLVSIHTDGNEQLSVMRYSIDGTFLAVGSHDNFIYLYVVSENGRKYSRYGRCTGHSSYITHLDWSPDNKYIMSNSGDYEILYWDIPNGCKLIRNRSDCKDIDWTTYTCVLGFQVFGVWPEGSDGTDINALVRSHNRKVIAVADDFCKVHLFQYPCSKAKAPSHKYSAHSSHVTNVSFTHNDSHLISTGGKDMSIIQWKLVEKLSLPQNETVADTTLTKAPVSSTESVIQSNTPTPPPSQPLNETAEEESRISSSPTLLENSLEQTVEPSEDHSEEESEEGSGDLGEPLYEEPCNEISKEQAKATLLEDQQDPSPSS
# T1 sequence (Q9UM73 19-1620 limits assumed): as the sequence (Q9UM73 19-1620 limits assumed) above
# NCI-H3122 [3] = experiment: Cell cycle arrest in human NCI-H3122 cells assessed as G2/M phase cells at 2.5 uM incubated for 24 hrs by propidium iodide staining based flow cytometric analysis (reference value: 20.89%); format: functional
# NCI-H3122 [4] = experiment: Cell cycle arrest in human NCI-H3122 cells assessed as accumulation of cells at G0/G1 phase at 2.5 uM incubated for 24 hrs by propidium iodide staining based flow cytometric analysis (reference value: 48.68%); format: functional
# [5] = Toxicity in BALB/c nude mouse xenografted with human NCI-H3122 cells assessed as effect on kidney function at 75 mg/kg, IG administered once daily for 18 days by H and E staining based assay; format: organism-based; conditions: in vivo, po, 432 h, time 18 day
# NCI-H3122 [6] = experiment: Induction of apoptosis in human NCI-H3122 cells assessed as necrotic cells at 1.25 uM incubated for 48 hrs by Annexin V-FITC/propidium iodide staining based flow cytometric analysis (reference value: 0.57%); format: functional
# NCI-H3122 [7] = experiment: Cell cycle arrest in human NCI-H3122 cells assessed as accumulation of cells at G0/G1 phase at 1.25 uM incubated for 24 hrs by propidium iodide staining based flow cytometric analysis (reference value: 48.68%); format: functional
# NCI-H3122 [8] = experiment: Cell cycle arrest in human NCI-H3122 cells assessed as accumulation of cells at G0/G1 phase at 0.625 uM incubated for 24 hrs by propidium iodide staining based flow cytometric analysis (reference value: 48.68%); format: functional
# NCI-H3122 [9] = experiment: Induction of apoptosis in human NCI-H3122 cells assessed as early apoptotic cells at 2.5 uM incubated for 48 hrs by Annexin V-FITC/propidium iodide staining based flow cytometric analysis (reference value: 0.71%); format: functional
# NCI-H3122 [10] = experiment: Induction of apoptosis in human NCI-H3122 cells assessed as early apoptotic cells at 0.312 uM incubated for 48 hrs by Annexin V-FITC/propidium iodide staining based flow cytometric analysis (reference value: 0.71%); format: functional
# [11] = target: T1, Protein cereblon/ALK tyrosine kinase receptor/Echinoderm microtubule-associated protein-like 4 (Homo sapiens); experiment: PROTAC activity at CRBN/EML4-ALK in human NCI-H3122 cells assessed as reduction in EML4-ALK fusion protein level at 0.1 to 20 uM incubated for 24 hrs in presence of GSH by Western blot analysis; format: cell-based; conditions: dose 0.1-20 µM
# [12] = target: Cyclin-dependent kinase 6 (Homo sapiens) (UniProt Q00534); experiment: Inhibition of CDK6 (unknown origin) at 1 uM by LANCE Ultra TR-FRET assay relative to control
# Cyclin-dependent kinase 6 (Homo sapiens), sequence (Q00534 whole entry): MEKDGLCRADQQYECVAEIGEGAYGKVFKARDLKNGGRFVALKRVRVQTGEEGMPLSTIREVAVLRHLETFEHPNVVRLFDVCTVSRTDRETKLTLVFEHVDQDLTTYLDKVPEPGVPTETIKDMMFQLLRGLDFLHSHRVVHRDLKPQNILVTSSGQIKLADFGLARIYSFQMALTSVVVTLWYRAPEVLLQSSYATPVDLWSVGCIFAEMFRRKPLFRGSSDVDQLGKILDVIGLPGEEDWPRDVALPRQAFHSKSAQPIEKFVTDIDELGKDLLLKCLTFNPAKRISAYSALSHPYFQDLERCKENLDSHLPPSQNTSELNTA
# [13] = Toxicity in BALB/c nude mouse xenografted with human NCI-H3122 cells assessed as effect on visceral liver morphology at 75 mg/kg, IG administered once daily for 18 days and measured after 12 hrs of last dose by H and E staining based analysis; format: organism-based; conditions: in vivo, po, 444 h
# [14] = target: Protein cereblon/Cyclin-dependent kinase 6 (Homo sapiens) (UniProt Q00534+Q96SW2); experiment: PROTAC activity at CRBN/CDK6 in human NCI-H3122 cells assessed as reduction in CDK6 protein level at 1 to 10 uM incubated for 24 hrs by Western blot analysis; format: cell-based; conditions: dose 1-10 µM
# Protein cereblon/Cyclin-dependent kinase 6 (Homo sapiens), sequence (Q00534 whole entry, looked up): as the sequence (Q00534 whole entry) above
# Protein cereblon/Cyclin-dependent kinase 6 (Homo sapiens), sequence (Q96SW2 whole entry, looked up): as the sequence (Q96SW2 whole entry partner, the tested form may be a part) above
# NCI-H3122 [15] = experiment: Antiproliferative activity against human NCI-H3122 cells assessed as inhibition of cell growth incubated for 3 to 5 days by MTT assay; format: functional, cell-based
# NCI-H3122 [16] = experiment: Induction of apoptosis in human NCI-H3122 cells assessed as late apoptotic cells at 0.312 uM incubated for 48 hrs by Annexin V-FITC/propidium iodide staining based flow cytometric analysis (reference value: 3.06%); format: functional
# [17] = target: T2, Protein cereblon/Cyclin-dependent kinase 4 (Homo sapiens, UniProt P11802+Q96SW2); experiment: PROTAC activity at CRBN/CDK4 in human L02 cells assessed as reduction in CDK4 protein level at 1 to 20 uM incubated for 24 hrs in presence of GSH by Western blot analysis; format: cell-based; conditions: dose 1-20 µM
# T2 sequence (P11802 2-303 limits assumed): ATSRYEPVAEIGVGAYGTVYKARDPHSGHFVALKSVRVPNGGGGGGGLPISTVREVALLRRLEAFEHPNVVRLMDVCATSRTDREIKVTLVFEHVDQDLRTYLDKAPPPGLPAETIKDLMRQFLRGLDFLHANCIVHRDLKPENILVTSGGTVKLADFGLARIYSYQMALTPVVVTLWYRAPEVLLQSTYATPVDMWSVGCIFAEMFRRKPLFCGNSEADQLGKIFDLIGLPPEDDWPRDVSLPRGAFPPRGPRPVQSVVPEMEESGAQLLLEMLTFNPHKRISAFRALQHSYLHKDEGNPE
# T2 sequence (Q96SW2 whole entry partner): as the sequence (Q96SW2 whole entry partner, the tested form may be a part) above
# NCI-H3122 [18] = experiment: Cell cycle arrest in human NCI-H3122 cells assessed as G2/M phase cells at 0.312 uM incubated for 24 hrs by propidium iodide staining based flow cytometric analysis (reference value: 20.89%); format: functional
# [19] = Cytotoxicity against human L02 cells assessed as inhibition of cell growth incubated for 3 to 5 days by MTT assay; format: toxicity, cell-based
# NCI-H3122 [20] = experiment: Induction of apoptosis in human NCI-H3122 cells assessed as necrotic cells at 0.625 uM incubated for 48 hrs by Annexin V-FITC/propidium iodide staining based flow cytometric analysis (reference value: 0.57%); format: functional
# NCI-H3122 [21] = experiment: Cell cycle arrest in human NCI-H3122 cells assessed as accumulation of cells at G0/G1 phase at 0.312 uM incubated for 24 hrs by propidium iodide staining based flow cytometric analysis (reference value: 48.68%); format: functional
# NCI-H3122 [22] = experiment: Antitumor activity against human NCI-H3122 cells xenografted in BALB/c nude mouse assessed as reduction in tumor volume at 75 mg/kg, IG administered once daily for 18 days and measured after 12 hrs of last dose; format: functional, organism-based; conditions: time 444.0 hrs
# [23] = target: T1, Protein cereblon/ALK tyrosine kinase receptor/Echinoderm microtubule-associated protein-like 4 (Homo sapiens); experiment: PROTAC activity at CRBN/EML4-ALK in human NCI-H2228 cells assessed as reduction in EML4-ALK fusion protein level incubated for 24 hrs by Western blot analysis; format: cell-based
# [24] = target: T2, Protein cereblon/Cyclin-dependent kinase 4; experiment: PROTAC activity at CRBN/CDK4 in human NCI-H3122 cells assessed as downregulation of phosphorylated Rb level by Western blot analysis; format: cell-based
# [25] = target: T2, Protein cereblon/Cyclin-dependent kinase 4; experiment: PROTAC activity at CRBN/CDK4 in human NCI-H3122 cells assessed as decrease in CDK4 protein level at 0.1 to 20 uM incubated for 24 hrs in presence of GSH by Western blot analysis; format: cell-based; conditions: dose 0.1-20 µM
# [26] = target: T1, Protein cereblon/ALK tyrosine kinase receptor/Echinoderm microtubule-associated protein-like 4 (Homo sapiens); experiment: PROTAC activity at CRBN/EML4-ALK in human L02 cells assessed as reduction in ALK protein level at 1 to 20 uM incubated for 24 hrs in presence of GSH by Western blot analysis; format: cell-based; conditions: dose 1-20 µM
# NCI-H3122 [27] = experiment: Inhibition of colony formation in human NCI-H3122 cells assessed as reduction in number of colonies measured after 10 days by crystal violet staining based microscopic analysis; format: functional, cell-based; conditions: dose 0.039-0.312 µM, time 10.0 day
# [28] = target: Cyclin-dependent kinase 4 (Homo sapiens) (UniProt P11802); experiment: Inhibition of CDK4 (unknown origin) at 0.05 uM by LANCE Ultra TR-FRET assay relative to control
# Cyclin-dependent kinase 4 (Homo sapiens), sequence (P11802 whole entry): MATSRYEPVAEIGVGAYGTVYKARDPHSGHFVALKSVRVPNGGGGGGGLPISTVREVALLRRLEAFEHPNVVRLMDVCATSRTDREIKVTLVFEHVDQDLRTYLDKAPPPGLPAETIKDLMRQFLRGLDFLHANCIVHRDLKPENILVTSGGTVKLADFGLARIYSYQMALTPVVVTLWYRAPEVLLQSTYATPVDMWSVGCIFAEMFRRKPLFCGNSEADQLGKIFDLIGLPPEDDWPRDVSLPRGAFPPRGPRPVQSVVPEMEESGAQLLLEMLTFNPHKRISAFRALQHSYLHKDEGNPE
# NCI-H3122 [29] = experiment: Induction of apoptosis in human NCI-H3122 cells assessed as viable cells at 2.5 uM incubated for 48 hrs by Annexin V-FITC/propidium iodide staining based flow cytometric analysis (reference value: 95.66%); format: functional; conditions: read-out: Activity
smiles,measurement,setting,value
CC(=O)c1c(C)c2cnc(Nc3ccc(N4CCN(CC(=O)NCCSSCCN(CC(=O)NCCNc5cccc6c5C(=O)N(C5CCC(=O)NC5=O)C6=O)C(=O)CCCCCCC(=O)N5CCC(c6cc(OC(C)C)c(Nc7ncc(Cl)c(Nc8ccccc8S(=O)(=O)C(C)C)n7)cc6C)CC5)CC4)cn3)nc2n(C2CCCC2)c1=O (centres undefined),Activity,[1],Active
same,Activity,[2],inactive
same,Activity,NCI-H3122 [3],11.78%
same,Activity,NCI-H3122 [4],81.72%
same,Activity,[5],Non-Toxic
same,Activity,NCI-H3122 [6],1.91%
same,Activity,NCI-H3122 [7],72.25%
same,Activity,NCI-H3122 [8],68.5%
same,Activity,NCI-H3122 [9],1.35%
same,Activity,NCI-H3122 [10],1.92%
same,Activity,[11],Active
same,inhibition,[12],97.8%
same,Activity,[13],Non-Toxic
same,Activity,[14],inactive
same,IC50,NCI-H3122 [15],0.14 µM
same,Activity,NCI-H3122 [16],5.85%
same,Activity,[17],inactive
same,Activity,NCI-H3122 [18],18.82%
same,IC50,[19],55.3 µM
same,Activity,NCI-H3122 [20],2.11%
same,Activity,NCI-H3122 [21],63.17%
same,Activity,NCI-H3122 [22],Active
same,Activity,[23],Active
same,Activity,[24],Active
same,Activity,[25],inactive
same,Activity,[26],Active
same,inhibition,NCI-H3122 [27],Dose-Dependent Effect
same,inhibition,[28],54.9%
same,viability at 2.5 µM,NCI-H3122 [29],81.8%
